Measured values: PMC7845544 (Frontiers in Pharmacology, 2021)
Entries after “also recorded” stand apart in the source; their conditions may differ.

How the values were obtained:
Cl-channel (GABA-gated) = settings: dose response
PDE isoforms = experiment: Phosphodiesterase (PDE) profile (Eurofins); assay type: biochemical; settings: 9 isoforms PDE
NK2 receptor = settings: dose response
55 targets = experiment: Single concentration Cerep profile (Eurofins); assay type: binding; settings: 10 uM
Monkey pharmacokinetics = assay type: in vivo; settings: data not shown
Adenosine A3 receptor = settings: dose response
immature B6C3F1 mice = experiment: Superovulation assay in immature mice; assay type: in vivo, mouse; settings: 30 and 100 mg/kg, mice receiving low dose rec-hFSH (0.15 IU)
Method: Immature SD rats and B6C3F1 mice (both 18–21 day old females) were purchased from Charles-River laboratories (Wilmington, MA, United States and Shanghai, China). All animals were treated in accordance to Chempartner (Shanghai, China) or Embryotech (Haverhill, MA, United States) IACUC approved animal protocols. The animals were provided water and food ad libitum and housed under 12 h dark and 12 h light schedules.
Immature rats and mice were used to investigate the ability of the small molecules to induce follicular development and support ovulation as described elsewhere ([Steelman and Pohley, 1953]) with modifications ([Sriraman et al., 2014]). […] […] The isolated COC’s were treated with hyaluronidase and the total number of ovulated oocytes was determined microscopically.
[…] […] In some experiments, serum was collected from the animals prior to the ovulatory dose of hCG to determine estradiol levels. Plasma concentrations of FSHR-AA were measured during superovulation assays, except for experiments where plasma was collected for estradiol measurements.

211 kinases = experiment: Kinase profile (Eurofins); assay type: biochemical
Solubility in PBS = assay type: physicochemical; settings: PBS (pH 7.4)
CYP3A4 = CYP3A4 (Homo sapiens, UniProt P08684); experiment: Cytochrome P450 inhibition; assay type: in vitro ADME; settings: b51 words it as 52% of vehicle
Sequence of CYP3A4 (P08684 whole entry): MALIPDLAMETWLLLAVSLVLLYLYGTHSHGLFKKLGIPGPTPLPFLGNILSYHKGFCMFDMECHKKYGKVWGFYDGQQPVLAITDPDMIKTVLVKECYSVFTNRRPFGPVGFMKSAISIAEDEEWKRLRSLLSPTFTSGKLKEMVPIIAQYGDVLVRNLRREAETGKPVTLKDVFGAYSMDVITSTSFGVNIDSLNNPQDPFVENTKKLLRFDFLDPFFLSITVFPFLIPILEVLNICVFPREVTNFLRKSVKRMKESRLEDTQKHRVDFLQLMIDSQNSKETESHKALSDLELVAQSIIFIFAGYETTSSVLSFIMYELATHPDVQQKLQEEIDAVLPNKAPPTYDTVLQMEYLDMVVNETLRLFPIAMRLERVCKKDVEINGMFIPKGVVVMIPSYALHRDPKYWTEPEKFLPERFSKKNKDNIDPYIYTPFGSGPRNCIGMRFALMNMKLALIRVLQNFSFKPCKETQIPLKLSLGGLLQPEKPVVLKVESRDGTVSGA

With COc1cc2c(cc1-c1cnn(CCO)c1)-c1c(c(C(=O)N(C)C(C)(C)C)nn1-c1cc(Cl)cc(Cl)c1)CO2 [TOP5300] the “selectivity / safety margin compared to FSHR, Cl-channel (GABA-gated)” value (Cl-channel (GABA-gated)) was “over 400 fold”, the “PDE profile @ 10 uM” value (PDE isoforms) was “N o si g ni fi cant i nhi bi ti on any” and the “selectivity / safety margin compared to FSHR, NK2(h)” value (NK2 receptor) was “over 400 fold”. For the same compound, the “number of targets < 60% inhibition” value (55 targets) was 52 targets, the “number of targets > 60% inhibition” value (55 targets) was 3 targets and the “half-life, monkey PK” value (Monkey pharmacokinetics) was 12.1 h. For the same compound, the “selectivity / safety margin compared to FSHR, A3(h)” value (Adenosine A3 receptor) was “over 400 fold”, the “follicular growth and ovulation” value (immature B6C3F1 mice) was “dose-dependent increases in follicular growth and ovulation” and the “Kinase profile @ 10 uM” value (211 kinases) was “N o si g ni fi cant i nhi bi ti on any; also recorded: failed to inhibit activity”.
With COc1cc(C(N)=O)cc(-c2cc3c(cc2OC)OCc2c(C(=O)N(C)C(C)(C)C)nn(-c4cc(Cl)cc(Cl)c4)c2-3)n1 [TOP5668] the “fold more soluble than TOP5300” value (Solubility in PBS) was 14 fold and the “CYP inh @ 10 µM, CYP3A4 (midazolam)” value (CYP3A4) was “CYP3A4 (midazolam) = 50.6%”.
